{"source": "paper PMC8453901", "about": "“GLPG1205, a GPR84 Modulator: Safety, Pharmacokinetics, and Pharmacodynamics in Healthy Subjects” (Clinical Pharmacology in Drug Development, 2021)", "key": {"[1]": {"tested_on": "CYP1A2", "design": "method as in data on file at Galapagos, 8, 9", "conditions": "100 mg once daily, healthy male subjects; ref data on file at Galapagos, 8, 9; cited from earlier work"}, "[2]": {"experiment": "Study 1 MAD part: plasma and urine pharmacokinetics, once daily for 14 days", "assay_type": "in vivo, human", "conditions": "for AUC / Cmax / Tmax / half-life: male, human, plasma, oral; for AUC: dosing interval 24 hours; for Tmax: median (minimum-maximum)", "method": "GLPG1205 or matching placebo were administered as an oral nanosuspension in the morning in a fed condition as an outpatient. For both the single ascending doses (SADs) and multiple ascending doses (MADs) parts of the study, subjects attended a screening visit (21 to 2 days before first study drug administration) and a follow‐up visit (7 to 10 days after the last dose).\nIn the MAD part of study 1, 24 healthy male subjects in 3 cohorts (C, D, and E; n = 8 each) each received GLPG1205 or matching placebo once daily for 14 days. Cohorts C, D, and E received GLPG1205 50 mg once daily or matching placebo, GLPG1205 100 mg once daily or matching placebo, and GLPG1205 200 mg once daily or matching placebo, respectively. Within a cohort, subjects were randomized to receive GLPG1205 or matching placebo in a 3:1 ratio. An interval of at least 6 days was enforced between cohorts. Subjects were kept in‐house from the evening of day –1 until ≈26 hours after first dosing (morning of day 2), and from the evening of day 13 to the morning of day 15. Administration of the study drug was performed daily at the clinical pharmacology unit.\nIn the SAD part of study 1, blood samples (2 mL) for PK assessments were obtained before dosing and at multiple time points on the day of study drug administration (before dosing and 0.5, 1, 2, 4, 6, 8, and 12 hours after dosing) and at 24, 48, and 72 hours after dosing. The predose sample for the next dose level was also used in PK analysis (168 hours after dosing). […] In the MAD part of study 1, blood samples (2 mL) were obtained on days 1, 2, 4, 5, 6, 8, 10, 12, 14, 15, 16, 17, and 18 and at follow‐up (approximately 7 to 10 days after the last dose). These PK blood samples were taken after dosing (1, 2, 4, 6, 8, 12, and 24 hours) on day 1; before dosing on days 4, 6, 8, and 10; and after dosing (1, 2, 4, 6, 8, 12, 24, 72, and 96 hours) on day 14. The following additional PK blood samples were also taken: cohort C, before dosing on day 5; and cohorts D and E, before dosing on day 12. Urine samples were obtained from fractions collected over 6‐ or 12‐hour periods after dosing on days –1, 1, 2, 13, 14, and 15; samples obtained on days –1 and 13 were for cytochrome P450 (CYP) induction analysis only. In study 2, blood samples (2 mL) were obtained on days 1, 2, 5, 7, 10, 14, 15, 17, and 20 and at follow‐up (approximately 21 days after end of study medication administration). Blood samples were taken before dosing and at 1, 2, 4, 6, 8, 12, and 24 hours after drug administration on days 1 and 14 and before dosing on other sampling days.\nBlood samples were immediately chilled (ice bath), and the plasma was separated by centrifugation (4°C for 10 minutes at ≈1500 g) within 30 minutes of blood collection.\nGLPG1205 plasma concentrations were determined using a validated liquid chromatography with tandem mass spectrometry method. After a protein precipitation with methanol, a chromatographic separation was performed on a Kinetex C18 column (50×3.0 mm, 2.6 μm; Phenomenex, Torrance, California) set at 40°C by using a Nexera high‐performance liquid chromatography (HPLC) system (Shimadzu, Kyoto, Japan) or an Infinity HPLC system (Agilent Technologies, Diegem, Belgium) in isocratic elution mode. A QTRAP6500, QTRAP4000, or API4000 mass spectrometer (AB Sciex, Nieuwerkerk aan den Ijssel, The Netherlands) equipped with a TurboIonSpray probe operated in the multiple reaction monitoring in positive mode was used for quantification. The calibration curves in plasma were linear over the range of 1 to 1000 ng/mL with 1/x^2 as weighting factor. The limit of quantification of the assay in the plasma samples was set at 1 ng/mL.\nGLPG1205 concentrations in urine fractions were determined by using a qualified liquid chromatography with tandem mass spectrometry method derived from the plasma method. […]"}, "[3]": {"conditions": "50 mg, 50 mg once daily, day 1, mean (CV%)"}, "[4]": {"conditions": "50 mg, 50 mg once daily, day 14, mean (CV%)"}, "[5]": {"conditions": "100 mg, 100 mg once daily, day 1, mean (CV%)"}, "[6]": {"conditions": "100 mg, 100 mg once daily, day 14, mean (CV%)"}, "[7]": {"conditions": "200 mg, 200 mg once daily, day 1, mean (CV%)"}}, "note": "“Also recorded” adds a separate entry of the source. Where two headings read alike, the source gives them in different places.", "data": [{"smiles": "O=c1nc(OC[C@@H]2COCCO2)cc2n1CCc1cc(C#CC3CC3)ccc1-2", "note": "[GLPG1205, 9‐cyclopropylethynyl‐2‐((S)‐1‐[1,4]dioxan‐2‐ylmethoxy)‐6,7‐dihydropyrimido[6,1‐a]isoquinolin‐4‐one]", "values": [{"measurement": "effect on exposure of CYP1A2", "setting": "[1]", "result": "did not affect the exposure"}, {"measurement": "Ae(Τ), amount excreted in urine over 24 hours", "setting": "[2]; 50 mg once daily, day 1, mean (CV%)", "result": "0.0785 (22.9) % dose"}, {"measurement": "Ae(Τ), amount excreted in urine over 24 hours", "setting": "[2]; 50 mg once daily, day 14, mean (CV%), N = 5", "result": "0.428 (22.0)^N = 5 % dose"}, {"measurement": "Ae(Τ), amount excreted in urine over 24 hours", "setting": "[2]; 100 mg once daily, day 1, mean (CV%), N = 4", "result": "0.0746 (30.1)^N = 4 % dose"}, {"measurement": "Ae(Τ), amount excreted in urine over 24 hours", "setting": "[2]; 100 mg once daily, day 14, mean (CV%)", "result": "0.480 (27.2) % dose"}, {"measurement": "Ae(Τ), amount excreted in urine over 24 hours", "setting": "[2]; 200 mg once daily, day 1, mean (CV%)", "result": "0.123 (27.0) % dose"}, {"measurement": "dose-proportionality of steady-state exposure (Cmax and AUCΤ)", "setting": "[2]; 50 to 100 mg once daily", "result": "increased in proportion with the dose; also recorded: increased proportionally with the dose"}, {"measurement": "excretion of unchanged GLPG1205 in urine over 24 hours", "setting": "[2]; at steady state on day 14", "result": "< 0.48 % of the administered dose"}, {"measurement": "AUC", "setting": "[2]; [3]", "result": 7580, "unit": "ng·h/mL"}, {"measurement": "Cmax", "setting": "[2]; [3]", "result": 469, "unit": "ng/mL"}, {"measurement": "Tmax", "setting": "[2]; 50 mg, 50 mg once daily, day 1", "result": 3, "unit": "h"}, {"measurement": "AUC", "setting": "[2]; [4]", "result": 41300, "unit": "ng·h/mL"}, {"measurement": "Cmax", "setting": "[2]; [4]", "result": 2050, "unit": "ng/mL"}, {"measurement": "half-life", "setting": "[2]; 50 mg, 50 mg once daily, day 14, mean (CV%), read-out: t1/2,λz (converted)", "result": 76.7, "unit": "h"}, {"measurement": "Tmax", "setting": "[2]; 50 mg, 50 mg once daily, day 14", "result": 4, "unit": "h"}, {"measurement": "AUC", "setting": "[2]; [5]", "result": 14400, "unit": "ng·h/mL"}, {"measurement": "Cmax", "setting": "[2]; [5]", "result": 875, "unit": "ng/mL"}, {"measurement": "Tmax", "setting": "[2]; 100 mg, 100 mg once daily, day 1", "result": 4, "unit": "h"}, {"measurement": "AUC", "setting": "[2]; [6]", "result": 82700, "unit": "ng·h/mL"}, {"measurement": "Cmax", "setting": "[2]; [6]", "result": 3910, "unit": "ng/mL"}, {"measurement": "half-life", "setting": "[2]; 100 mg, 100 mg once daily, day 14, mean (CV%), read-out: t1/2,λz (converted)", "result": 88.6, "unit": "h"}, {"measurement": "Tmax", "setting": "[2]; 100 mg, 100 mg once daily, day 14", "result": 4, "unit": "h"}, {"measurement": "AUC", "setting": "[2]; [7]", "result": 42900, "unit": "ng·h/mL"}, {"measurement": "Cmax", "setting": "[2]; [7]", "result": 2450, "unit": "ng/mL"}, {"measurement": "Tmax", "setting": "[2]; 200 mg, 200 mg once daily, day 1", "result": 3, "unit": "h"}, {"measurement": "Cmax", "setting": "[2]; 200/150 mg once daily (150 mg as of day 8), day 14, n = 3, mean (CV%)", "result": 8900, "unit": "ng/mL"}, {"measurement": "AUC", "setting": "[2]; 200/150 mg once daily, day 14, n = 3, mean (CV%)", "result": 195000, "unit": "ng·h/mL"}, {"measurement": "half-life", "setting": "[2]; 200/150 mg once daily, day 14, n = 3, mean (CV%), read-out: t1/2,λz (converted)", "result": 141, "unit": "h"}, {"measurement": "Tmax", "setting": "[2]; 200/150 mg once daily, day 14, n = 3", "result": 12, "unit": "h"}, {"measurement": "half-life", "setting": "[2]; once-daily dosing for 14 days, read-out: t1/2,λz range", "result": "76.7 to 141", "unit": "h"}, {"measurement": "time to steady state in plasma concentrations", "setting": "[2]; once-daily dosing for 14 days, irrespective of dose (by day 10)", "result": 9, "unit": "dosing days"}]}]}
